Experimental data as given in US11773057B2, “Naphthalenesulfonamide compound, preparation method, and application” (CHINA PHARMACEUTICAL UNIVERSITY, priority 2019, dated 2023).
One block for each compound: values may come before it.

How the values were obtained:
[1] = molecular target: T1, Keap1-Nrf2 PPI (Keap1 kelch domain protein, FITC labeled Nrf2 9 peptide) (Homo sapiens, UniProt Q14145); experiment: Fluorescence polarization based Keap1-Nrf2 PPI competitive inhibition experiment (FP experiment); type: binding; details: for IC50: FP experiment
T1 construct: 10 μL 12 nm Keap1 kelch domain protein
T1 sequence (Q14145 321-609 limits assumed): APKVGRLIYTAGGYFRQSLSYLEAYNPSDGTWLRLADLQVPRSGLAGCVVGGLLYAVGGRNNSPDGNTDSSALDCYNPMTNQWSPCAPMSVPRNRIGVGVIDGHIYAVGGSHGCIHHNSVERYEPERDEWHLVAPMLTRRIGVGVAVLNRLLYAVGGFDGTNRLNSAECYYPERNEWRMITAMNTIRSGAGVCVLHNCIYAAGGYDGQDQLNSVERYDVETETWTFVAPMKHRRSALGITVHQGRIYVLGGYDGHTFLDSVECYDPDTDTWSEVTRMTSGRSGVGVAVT
Procedure: 1. Keap1-Nrf2 PPI Competitive Inhibition Test Based on Fluorescence Polarization (FP Experiment)
The 384-well blackboard model 3676 produced by Corning is used in FP experiment, with a total volume of reaction of 40 μL. 20 μL compound, 10 μL 4 nm FITC labeled Nrf2 9 peptide, 10 μL 12 nm Keap1 kelch domain protein are added to the well in order. 20 μL 200 nM DDO-1002, 10 μL 4 nM of the FITC-labeled Nrf2 9 peptide, 10 μL 12 nM of Keap1 Ketch domain protein are used in the positive control; 20 μL HEPES buffer, 10 μL 4 nM of the FITC-labeled Nrf2 9 peptide, 10 μL, 12 nM of Keap1 Kelch domain protein are used in the negative control; 10 μL 4 nM of the FITC-labeled Nrf2 9 peptide, 30 μL of HEPES buffer are used in the blank control. After addition is complete, they are incubated for 30 min at room temperature. The detection instrument is a SpectraMax Multi-Mode Microplate Reader (Molecular Devices), the excitation light wavelength selected is 485 nm, the emission light wavelength is 545 nm, and the fluorescence intensity in the horizontal and vertical directions is detected to calculate the polarization value. The inhibition rate is calculated as: inhibition %=[…]/(Pmax−Pmin) wherein Pobs is the polarization value of the compound well, Pmax is the polarization value of the negative control well, and Pmin is the polarization value of the blank well. Data treatment is performed using GraphPad Prism, and IC50 of the compound is calculated using a concentration-inhibition rate curve. The IC50 values for each compound are as previously described.

HepG2-ARE-C8 cells = experiment: ARE luciferase reporter gene experiment; type: cell-based; details: compound acts 12 h, ratio to DMSO group, FIG. 1, in words
Procedure: 2. ARE Luciferase Reporter Gene Experiment
HepG2-ARE-C8 cells in log growth phase (these cells are given by A. N. Tony Kong of Rutgers University) are digested with 0.1% pancreatin to prepare a cell suspension, the cell suspension is added to a 96-well microtiter plate at a cell concentration of 4×10^5/mL, added 100 μL per well, and after overnight culture, a DMSO group serves as a negative control, t-BHQ serves as a positive control, and a cell culture lysis reagent serves as a background value. The compound is allowed to act for 12 h, three replicate wells were provided, the growth medium is carefully pipetted from the cells to be examined, 100 μL of pre-cooled. […] 100 μL luciferase detection reagent is added to each well and read immediately. […] Typical delay time is 2 seconds, typical reading time is 10 seconds, and the last measured data is divided from the DMSO group. […]
By a fluorescence polarization based Keap1-Nrf2 PPI competitive inhibition experiment we have shown that on the target level, some compounds (compound numbers see FIG. 1) are able to efficiently compete for binding to Keap1 and thereby activating Nrf2. […] When luciferin is present in a substrate, the […], and the activation capability of a compound on Nrf2 is indirectly reflected by means of fluorescence intensity. […]

[2] = general formula V / VI compounds
[3] = general formula I / II compounds
[4] = general formula III compounds, unit inferred

SMILES: C#CCN(c1ccc(NS(=O)(=O)c2c(C)cc(OC)cc2C)c2ccccc12)[C@@H](C)CC(=O)O [DDO-1220]
IC50 [1, 2]: 13 nM | ARE luciferase reporter gene activity (fold induction), cell activity (HepG2-ARE-C8 cells): has the optimal cell activity

SMILES: C#CCN(c1ccc(NS(=O)(=O)c2ccccc2C)c2ccccc12)[C@@H](C)CC(=O)O [DDO-1202, (S)-3-((4-((2-methylphenyl)sulfonamido)naphthalen-1-yl)(prop-2-yn-1-yl)amino) butanoic acid]
IC50 [1, 4]: 240 nM

SMILES: COc1ccc(S(=O)(=O)Nc2ccc(N(Cc3ccc(C)cc3)[C@@H](C)CC(=O)O)c3ccccc23)cc1 [DDO-1162, 3-((4-((4-methoxyphenyl)sulfonamido)naphthalen-1-yl) (4-methylbenzyl)amino) butanoic acid]
IC50 [1, 3]: 1910 nM

SMILES: C#CCN(c1ccc(NS(=O)(=O)c2ccccc2OC)c2ccccc12)[C@@H](C)CC(=O)O [DDO-1198]
IC50 [1, 4]: 2000 nM

SMILES: C#CCN(c1ccc(NS(=O)(=O)c2ccc(OC)c(OC)c2)c2ccccc12)[C@@H](C)CC(=O)O [DDO-1210, (S)-3-((4-((3,4-dimethoxyphenyl)sulfonamido)naphthalen-1-yl) (prop-2-yn-1-yl)amino) butanoic acid]
IC50 [1, 2]: 72 nM

Next, values leading:

IC50 [1, 2]: 5.8 nM | target activity in the FP assay ([1]; in words): optimal target activity | ARE luciferase reporter gene activity (fold induction), cell activity (HepG2-ARE-C8 cells): does not have the optimal cell activity
SMILES: C#CCN(c1ccc(N(CC(=O)O)S(=O)(=O)c2c(C)cc(OC)cc2C)c2ccccc12)[C@@H](C)CC(=O)O [DDO-1221]

IC50 [1, 2]: 37 nM
SMILES: C#CCN(c1ccc(N(CC(=O)O)S(=O)(=O)c2ccc(OC)c(C)c2)c2ccccc12)[C@@H](C)CC(=O)O [DDO-1217, (S)-3-((4-((N-(Carboxymethyl)-4-methoxy-3-methylphenyl)sulfonamido)naphthalen-1-yl)(prop-2-yn-1-yl)amino) butanoic acid]

IC50 ([1]; general formula IV compounds): 68 nM
SMILES: C#CCN(c1ccc(N(CC(=O)O)S(=O)(=O)c2ccc(OC)cc2)c2ccccc12)[C@@H](C)CC(=O)O [DDO-1181]

IC50 [1, 3]: 272 nM
SMILES: COc1ccc(S(=O)(=O)N(CC(=O)O)c2ccc(N(Cc3ccc(Cl)cc3)[C@@H](C)CC(=O)O)c3ccccc23)cc1 [DDO-1165, (S)-3-((4-((N-(carboxymethyl)-4-methoxyphenyl)sulfonamido)naphthalen-1-yl) (4-chlorobenzyl)amino) butanoic acid]

IC50 [1, 3]: 152 nM
SMILES: COc1ccc(S(=O)(=O)N(CC(=O)O)c2ccc(N(Cc3ccc(C)cc3)[C@@H](C)CC(=O)O)c3ccccc23)cc1 [DDO-1163]

IC50 [1, 2]: 40 nM
SMILES: C#CCN(c1ccc(N(CC(=O)O)S(=O)(=O)c2ccc(OC)c(Cl)c2)c2ccccc12)[C@@H](C)CC(=O)O [DDO-1215]
